A short description of this series: Plasma protein binding in healthy geriatric volunteer by equilibrium dialysis method. The format is ADME, cell-free. The conditions noted are these: human, read-out: PPB. (In general: In equilibrium dialysis free small molecules cross a membrane that holds back macromolecules.)

`CC(C)(O)C(=O)Nc1ccc([N+](=O)[O-])c(C(F)(F)F)c1` [HYDROXYFLUTAMIDE]: the fraction unbound is below 0.06.

The values above are taken from ChEMBL document CHEMBL3784969, “Pharmacokinetics of flutamide in patients with renal insufficiency” (Br J Clin Pharmacol, 1999).
